This assay has as its target human APJ receptor (Homo sapiens (Human), UniProt P35414). The assay can be described thus: Intracellular cAMP accumulation assay (APJ hcAMP, HTRF). The class given is cell-based. The conditions noted are these: HEK293 cells stably expressing human APJ receptor; inhibition of forskolin-mediated cAMP production; read-out: Human APJ cAMP EC50 Potency range. The method in brief: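 HEK293 cells stably expressing human APJ, 5,000 per well, incubated 30 min at rt with compound, […] and 2 μM forskolin. cAMP measured by HTRF against a cAMP standard curve as inhibition of forskolin-driven production. EC50 from variable-slope sigmoidal fit.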

Chain of human APJ receptor (P35414 whole entry): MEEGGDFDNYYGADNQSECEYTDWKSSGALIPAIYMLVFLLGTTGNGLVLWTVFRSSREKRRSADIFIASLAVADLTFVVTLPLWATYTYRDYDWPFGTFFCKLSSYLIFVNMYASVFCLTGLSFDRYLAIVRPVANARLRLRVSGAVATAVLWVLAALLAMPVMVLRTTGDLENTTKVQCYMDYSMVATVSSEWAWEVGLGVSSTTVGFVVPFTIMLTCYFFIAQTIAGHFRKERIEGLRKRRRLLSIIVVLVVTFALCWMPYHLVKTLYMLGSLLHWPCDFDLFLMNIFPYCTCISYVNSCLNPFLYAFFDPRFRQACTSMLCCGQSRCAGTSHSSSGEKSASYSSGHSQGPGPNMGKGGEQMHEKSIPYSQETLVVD

In general, EC50 refers to the concentration needed to bring the measured effect to its halfway point. Take `CC[C@@H](c1cccc(C#N)c1)n1c(COC(C)C)nc(=O)c(S(=O)(=O)c2ccc(-c3ccncc3C)cc2)c1O` [Example 383, 3-[(1S)-1-{6-hydroxy-5-[4-(3-methylpyridin-4-yl)benzenesulfonyl]-4-oxo-2-[(propan-2-yloxy)methyl]-1,4-dihydropyrimidin-1-yl}propyl]benzonitrile]: the EC50 fell in the range of 0.01 to 10 nM.
As to `CC[C@@H](c1cccc(C#N)c1)n1c(COC(C)C)nc(=O)c(S(=O)(=O)c2ccc(-c3cccnc3C)cc2)c1O` [Example 384, 3-[(1S)-1-{6-hydroxy-5-[4-(2-methylpyridin-3-yl)benzenesulfonyl]-4-oxo-2-[(propan-2-yloxy)methyl]-1,4-dihydropyrimidin-1-yl}propyl]benzonitrile], the EC50 lay in the range of 0.01 to 10 nM.
Take `CCOCc1nc(=O)c(S(=O)(=O)c2ccc(-c3ccc(F)nc3C)cc2)c(O)n1[C@@H](COC)c1cc(F)cc(F)c1` [Example 385, 1-[(1R)-1-(3,5-difluorophenyl)-2-methoxyethyl]-2-(ethoxymethyl)-5-[4-(6-fluoro-2-methylpyridin-3-yl)benzenesulfonyl]-6-hydroxy-1,4-dihydropyrimidin-4-one]: the EC50 was 0.01 to 10 nM.
On to `CCOCc1nc(=O)c(S(=O)(=O)c2ccc(-c3cccnc3C)cc2)c(O)n1[C@@H](COC)c1cc(F)cc(F)c1` [Example 386, 1-[(1R)-1-(3,5-difluorophenyl)-2-methoxyethyl]-2-(ethoxymethyl)-6-hydroxy-5-[4-(2-methylpyridin-3-yl)benzenesulfonyl]-1,4-dihydropyrimidin-4-one], for which the EC50 lay within 0.01 to 10 nM.
The value for `CCOCc1nc(=O)c(S(=O)(=O)c2ccc(-c3ccncc3C)cc2)c(O)n1[C@@H](COC)c1cc(F)cc(F)c1` [Example 387, 1-[(1R)-1-(3,5-difluorophenyl)-2-methoxyethyl]-2-(ethoxymethyl)-6-hydroxy-5-[4-(3-methylpyridin-4-yl)benzenesulfonyl]-1,4-dihydropyrimidin-4-one] was 0.01 to 10 nM; that for `CCOCc1nc(=O)c(S(=O)(=O)c2ccc(-c3ccnc(F)c3C)cc2)c(O)n1[C@@H](COC)c1cc(F)cc(F)c1` [Example 388, 1-[(1R)-1-(3,5-difluorophenyl)-2-methoxyethyl]-2-(ethoxymethyl)-5-[4-(2-fluoro-3-methylpyridin-4-yl)benzenesulfonyl]-6-hydroxy-1,4-dihydropyrimidin-4-one] was 0.01 to 10 nM.
Next, `COC[C@@H](c1cccc(C#N)c1)n1c(COC(C)C)nc(=O)c(S(=O)(=O)c2ccc(-c3ccc(F)nc3C)cc2)c1O` [Example 389, 3-[(1R)-1-{5-[4-(6-fluoro-2-methylpyridin-3-yl)benzenesulfonyl]-6-hydroxy-4-oxo-2-[(propan-2-yloxy)methyl]-1,4-dihydropyrimidin-1-yl}-2-methoxyethyl]benzonitrile]: 0.01 to 10 nM; `COC[C@@H](c1cccc(C#N)c1)n1c(COC(C)C)nc(=O)c(S(=O)(=O)c2ccc(-c3cccnc3C)cc2)c1O` [Example 390, 3-[(1R)-1-{6-hydroxy-5-[4-(2-methylpyridin-3-yl)benzenesulfonyl]-4-oxo-2-[(propan-2-yloxy)methyl]-1,4-dihydropyrimidin-1-yl}-2-methoxyethyl]benzonitrile]: 0.01 to 10 nM; `COC[C@@H](c1cc(F)cc(F)c1)n1c(COC(C)C)nc(=O)c(S(=O)(=O)c2ccc(-c3cncc(C#N)c3)cc2)c1O` [Example 391, 5-[4-({1-[(1R)-1-(3,5-difluorophenyl)-2-methoxyethyl]-6-hydroxy-4-oxo-2-[(propan-2-yloxy)methyl]-1,4-dihydropyrimidin-5-yl}sulfonyl)phenyl] pyridine-3-carbonitrile]: 0.01 to 10 nM.
The value for `COC[C@@H](c1cc(F)cc(F)c1)n1c(COC(C)C)nc(=O)c(S(=O)(=O)c2ccc(-c3ccccc3C(N)=O)cc2)c1O` [Example 392, 4′-({1-[(1R)-1-(3,5-difluorophenyl)-2-methoxyethyl]-6-hydroxy-4-oxo-2-[(propan-2-yloxy)methyl]-1,4-dihydropyrimidin-5-yl}sulfonyl)-[1,1′-biphenyl]-2-carboxamide] was 0.01 to 10 nM.
As to `COC[C@@H](c1cccc(C#N)c1)n1c(COC(C)C)nc(=O)c(S(=O)(=O)c2ccc(-c3cn(C)nc3C)cc2)c1O` [Example 393, 3-[(1R)-1-{5-[4-(1,3-dimethyl-1H-pyrazol-4-yl)benzenesulfonyl]-6-hydroxy-4-oxo-2-[(propan-2-yloxy)methyl]-1,4-dihydropyrimidin-1-yl}-2-methoxyethyl]benzonitrile], the EC50 is 0.01 to 10 nM.
The value for `COC[C@@H](c1cccc(C#N)c1)n1c(COC(C)C)nc(=O)c(S(=O)(=O)c2ccc(-c3c[nH]nc3C)cc2)c1O` [Example 394, 3-[(1R)-1-{6-hydroxy-5-[4-(3-methyl-1H-pyrazol-4-yl)benzenesulfonyl]-4-oxo-2-[(propan-2-yloxy)methyl]-1,4-dihydropyrimidin-1-yl}-2-methoxyethyl]benzonitrile] was 0.01 to 10 nM; that for `COC[C@@H](c1cccc(C#N)c1)n1c(COC(C)C)nc(=O)c(S(=O)(=O)c2ccc(-c3ccnc(F)c3C)cc2)c1O` [Example 395, 3-[(1R)-1-{5-[4-(2-fluoro-3-methylpyridin-4-yl)benzenesulfonyl]-6-hydroxy-4-oxo-2-[(propan-2-yloxy)methyl]-1,4-dihydropyrimidin-1-yl}-2-methoxyethyl]benzonitrile] was 0.01 to 10 nM.
The value for `COC[C@@H](c1cc(F)cc(F)c1)n1c(COC(C)C)nc(=O)c(S(=O)(=O)c2ccc(-c3cn(C)nc3C)cc2)c1O` [Example 396, 1-[(1R)-1-(3,5-difluorophenyl)-2-methoxyethyl]-5-[4-(1,3-dimethyl-1H-pyrazol-4-yl)benzenesulfonyl]-6-hydroxy-2-[(propan-2-yloxy)methyl]-1,4-dihydropyrimidin-4-one] was 0.01 to 10 nM; that for `COC[C@@H](c1cc(F)cc(F)c1)n1c(COC(C)C)nc(=O)c(S(=O)(=O)c2ccc(-c3cnn(C)c3C)cc2)c1O` [Example 397, 1-[(1R)-1-(3,5-difluorophenyl)-2-methoxyethyl]-5-[4-(1,5-dimethyl-1H-pyrazol-4-yl)benzenesulfonyl]-6-hydroxy-2-[(propan-2-yloxy)methyl]-1,4-dihydropyrimidin-4-one] was 0.01 to 10 nM.
Take `COC[C@@H](c1cc(F)cc(F)c1)n1c(COC(C)C)nc(=O)c(S(=O)(=O)c2ccc(-c3ccncc3C#N)cc2)c1O` [Example 398, 4-[4-({1-[(1R)-1-(3,5-difluorophenyl)-2-methoxyethyl]-6-hydroxy-4-oxo-2-[(propan-2-yIoxy)methyl]-1,4-dihydropyrimidin-5-yl}sulfonyl)phenyl] pyridine-3-carbonitrile]: the half-maximal effective concentration (EC50) was in the range of 0.01 to 10 nM.
Regarding `COC[C@@H](c1cccc(C#N)c1)n1c(COC(C)C)nc(=O)c(S(=O)(=O)c2ccc(-c3ccccc3C(N)=O)cc2)c1O` [Example 399, 4′-({1-[(1R)-1-(3-cyanophenyl)-2-methoxyethyl]-6-hydroxy-4-oxo-2-[(propan-2-yloxy)methyl]-1,4-dihydropyrimidin-5-yl}sulfonyl)-[1,1′-biphenyl]-2-carboxamide], the EC50 is 0.01 to 10 nM.
The value for `CC[C@@H](c1cccc(C#N)c1)n1c(COC(C)C)nc(=O)c(S(=O)(=O)c2ccc(-c3ccccc3C(N)=O)cc2)c1O` [Example 400, 4′-({1-[(1S)-1-(3-cyanophenyl)propyl]-6-hydroxy-4-oxo-2-[(propan-2-yloxy)methyl]-1,4-dihydropyrimidin-5-yl}sulfonyl)-[1,1′-biphenyl]-2-carboxamide] was 0.01 to 10 nM.
The value for `CCOCc1nc(=O)c(S(=O)(=O)c2ccc(-c3ccccc3C(N)=O)c(F)c2)c(O)n1C(COC)c1cccc(F)c1` (stereo not drawn) [Example 401, 4′-{[2-(ethoxymethyl)-1-[1-(3-fluorophenyl)-2-methoxyethyl]-6-hydroxy-4-oxo-1,4-dihydropyrimidin-5-yl]sulfonyl}-2′-fluoro-[1,1′-biphenyl]-2-carboxamide] was 0.01 to 10 nM; that for `COC[C@@H](c1ccccc1)n1c(COC(C)C)nc(=O)c(S(=O)(=O)c2ccc(-c3ccccc3C(N)=O)c(F)c2)c1O` [Example 402, 2′-fluoro-4′-({6-hydroxy-1-[(1R)-2-methoxy-1-phenylethyl]-4-oxo-2-[(propan-2-yloxy)methyl]-1,4-dihydropyrimidin-5-yl}sulfonyl)-[1,1′-biphenyl]-2-carboxamide] was 0.01 to 10 nM.
The value for `CC[C@@H](c1cccc(C#N)c1)n1c(COC(C)C)nc(=O)c(S(=O)(=O)c2ccc(-c3ccncc3C#N)cc2)c1O` [Example 403, 4-[4-({1-[(1S)-1-(3-cyanophenyl)propyl]-6-hydroxy-4-oxo-2-[(propan-2-yloxy)methyl]-1,4-dihydropyrimidin-5-yl}sulfonyl)phenyl]pyridine-3-carbonitrile] was 0.01 to 10 nM; that for `COC[C@@H](c1cccc(C#N)c1)n1c(COC(C)C)nc(=O)c(S(=O)(=O)c2ccc(-c3ccncc3C#N)cc2)c1O` [Example 404, 4-[4-({1-[(1R)-1-(3-cyanophenyl)-2-methoxyethyl]-6-hydroxy-4-oxo-2-[(propan-2-yloxy)methyl]-1,4-dihydropyrimidin-5-yl}sulfonyl)phenyl] pyridine-3-carbonitrile] was 0.01 to 10 nM; that for `COC[C@@H](c1ccccc1)n1c(COC(C)C)nc(=O)c(S(=O)(=O)c2ccc(-c3ccncc3C#N)c(F)c2)c1O` [Example 405, 4-[2-fluoro-4-({6-hydroxy-1-[(1R)-2-methoxy-1-phenylethyl]-4-oxo-2-[(propan-2-yloxy)methyl]-1,4-dihydropyrimidin-5-yl}sulfonyl)phenyl]pyridine-3-carbonitrile] was 0.01 to 10 nM.
For the compound `COC[C@@H](c1ccccc1)n1c(COC(C)C)nc(=O)c(S(=O)(=O)c2ccc(-c3ccncc3C#N)cc2)c1O` [Example 406, 4-[4-({6-hydroxy-1-[(1R)-2-methoxy-1-phenylethyl]-4-oxo-2-[(propan-2-yloxy)methyl]-1,4-dihydropyrimidin-5-yl}sulfonyl)phenyl]pyridine-3-carbonitrile], the EC50 was in the range of 0.01 to 10 nM.
